Measured values reported in ChEMBL document CHEMBL1146412, “Sch 54445: a new polycyclic xanthone with highly potent antifungal activity produced by Actinoplanes sp” (J Nat Prod, 1997).

Assay: Toxicity in iv dosed mouse
Format: organism-based
Details: in vivo

CCC(C)c1cc2c(Cl)c3c(c(O)c2c(=O)n1N)-c1c(O)c2c(c4c1[C@@H](C3)OCO4)O[C@H]1[C@@H](C2=O)[C@@H](O)C=C[C@H]1OC (stereo partly specified)
LD50: 1 mg/kg
